Measured values taken from paper PMC11754443, “Synthesis, H2S releasing properties, antiviral and antioxidant activities and acute cardiac effects of nucleoside 5′-dithioacetates” (Scientific Reports, 2025).
Where two headings read alike, the source gives them in different places.

How the values were obtained:
[1] = design: method as in PMID 26809888; conditions: administered at the end of sustained ischemia; cited from earlier work
[2] = system: perivascular adipose tissue; design: method as in PMID 26120822; conditions: obese rats, through H2S release; cited from earlier work
[3] = DPPH radical scavenging assay; conditions: for IC50: without extract
Procedure: DPPH is a stable free radical with a deep violet color that changes to yellow when neutralized by an electron or hydrogen radical, indicating the antioxidant activity of the sample being tested. The DPPH radical scavenging abilities were investigated following the method outlined by Shimamura et al., with minor adjustments. In this study, a cardiovascular tissue homogenate was used to induce H2S release from the dithioacetate derivatives 22 and 24, as well as GYY4137. A mixed solution of 1.2 mL of methanol and 800 µL of 0.1 M Tris-HCl buffer (pH 7.4) served as the blank. 1 mL DPPH solution was added to a mixture of methanol and 0.1 M Tris-HCl buffer (200:800 µL). After mixing, the absorbance was recorded at 517 nm on a UV-1600 PC VWR spectrophotometer (VWR, China). To avoid any potential interference from the heart extract in the assay, we measured the absorbance after adding different volumes of the extract into the mixture. These measurements were taken both immediately and after 30 min of incubation.
The DPPH antioxidant assay was performed according to the following procedures. 1 mL of DPPH solution was added to a mixture of 200 µL of the methanolic sample solution and 800 µL of 0.1 M Tris-HCl buffer (pH = 7.4). For the groups containing the extract, the extract was introduced into a mixture of the sample solution in PBS buffer, 0.1 M Tris-HCl buffer, and DPPH (200:800:1000 µL). Considering that GYY4137 produces H2S upon hydrolysis, it was introduced last following the addition of the extract into a solution of PBS buffer, 0.1 M Tris-HCl buffer, and DPPH maintained at the same ratio. The same protocol was employed for NaHS without the addition of the extract. After mixing, the absorbance was promptly recorded, after which the solutions were incubated in the dark at room temperature for 30 min before the absorbance was measured again. The test samples were prepared and assayed at varying concentrations using a 2-fold serial dilution method, starting from a concentration of 2 mM. Each investigation was performed in triplicate, and the antioxidant activity was based on the absorbance recorded at 517 nm. Ascorbic acid (AA), GYY4137, and NaHS served as positive controls, while the unmodified nucleosides were used as reference compounds.
The inhibition ratio (IR) was calculated as follows: [drawing 1] where Ac is the absorbance when methanol is added instead of the sample and As is the absorbance when the testing sample solution is added.
The antioxidant capacity was expressed as the concentration needed to achieve a 50% inhibition of the free radical (IC50). The IC50 values were calculated by plotting the percent of inhibition as a function of sample concentration.

[4] = ABTS radical cation decolorization assay; conditions: 0.1 mM, compared with parent dithioacetates 22 and 24
Procedure: The ABTS decolorization assay was carried out as described by Szoke et al.[54] Briefly, the method is based on the scavenging of (2,2′-azinobis-(3-ethylbenzothiazoline-6-sulfonic acid) ABTS^•+ radical cation. The decolorization caused by the compound is compared to the decolorization induced by Trolox (6-hydroxy-2,5,7,8-tetramethylchroman-2-carboxylic acid), and expressed as Trolox equivalent antioxidant capacity (TEAC) value. TEAC values were expressed as Trolox equivalents calculated from (Ai − Af)antioxidant/(Ai − Af) Trolox at 0.1 mM concentrations. Briefly, a total of 10 µL sample, 20 µL of Myoglobin Working Solution, and 150 µL of ABTS Substrate Working Solution were mixed and incubated for 5 min at room temperature. At the end of incubation […] of Stop Solution was added and endpoint absorbance at 405 nm was read. All experiments were performed in triplicates and repeated three times.

[5] = system: anaesthetized Sprague-Dawley rats; assay: Cardiac effects by ECG and echocardiography in anaesthetized rats; format: in vivo, rat; conditions: 2 mg/kg i.v.
Procedure: The animals received humane care, and all experimental procedures were carried out in accordance with the “Principles of Laboratory Animal Care” by EU Directive 2010/63/EU. All experimental protocols were approved by the local Ethics Committee of University of Debrecen (25/2023/DEMÁB). Animal experiments are reported in compliance with the ARRIVE guidelines. Anesthesia was carried out using ketamine/xylazine mixture (100/10 mg/kg, i.m.). The chest was shaved and the animal was placed onto a heated pad (VisualSonics SR200, VisualSonics, Amsterdam, The Netherlands). The lateral tail vein was cannulated using a heparinized 26G i.v. cannula (BD Neoflon, BD Medical, NJ, USA). B-mode and M-mode echocardiography was carried out before and 30 s after the intravenous administration of the compounds. A high-resolution ultrasound machine (Vevo 3100 Imaging Station, VisualSonics, Amsterdam, The Netherlands) equipped with a […] transducer (MX201) was used for assessing cardiac parameters. Traces were obtained from the parasternal long axis view (PLAX). A B-mode video and an M-mode trace was recorded, and the following parameters were then offline analysed: left ventricle (LV) end-systolic and end-diastolic volume (LVESV, LVEDV, respectively) fractional shortening (FS) and ejection fraction (EF) and stroke volume (SV).
A 3-channel ECG was continuously recorded during the experiments (Vevo monitor ECG, VisualSonics, Amsterdam, The Netherlands). On the recorded ECG data, RR, PR and QT intervals, and heart rate (HR) were determined before and 30 s after the administration of the drugs, and 6 consecutive cardiac cycles were averaged for each parameter.
Statistical analyses for the in vivo studies were carried out using the GraphPad Prism 9.0 software (GraphPad Software, San Diego, CA, USA). Data distribution was assessed by the Shapiro-Wilk normality test, and paired t-test were used to determine the differences between the baseline (drug free) and endpoint (treated) parameters in each group. A multiple comparison was also carried out between the treatment groups by using one-way ANOVA with Tukey multiple comparison test. Data was shown as mean ± SD, and differences with p < 0.05 were considered significant.

[6] = system: SARS-CoV-2 (strain hCoV-19/Czech Republic/NRL_6632_2/2020); assay: Anti-SARS-CoV-2 cytopathic-effect-based assay in Calu-3 cells (CellTiter-Glo); format: cell-based; conditions: Severe acute respiratory syndrome coronavirus 2, compound added 2 h after infection, MOI 0.3, read after two days, read-out: EC50 ± SE, anti-SARS-CoV-2 activity
[7] = Cytotoxicity in Calu-3 cells (CellTiter-Glo); format: cell-based, human; conditions: human
Procedure: Cytotoxicity was evaluated by incubating the same two-fold serial dilutions of each compound with Calu-3 cells as above in the absence of the virus. Following two days incubation at 37 °C in 5% CO2, the cell viability was determined as above. The compound concentrations resulting in 50% reduction of cell viability (CC50) were calculated from plots of percentage of luminescence versus log10 drug concentration as above. Remdesivir was used as control in both assays.

SARS-CoV-2 = format: cell-based; conditions: medium of Calu-3 cells infected 2 days at the highest compound concentration, plaque assay in Vero E6 cells
[8] = anaesthetized SD rats, 30 s after administration, mean ± SD

Compound: NC(=S)c1ccc(OC[C@H]2O[C@@H](n3cnc4c(N)ncnc43)[C@H](O)[C@@H]2O)cc1 [Compound 1]
- effect on infarct size [1]: significantly reduced infarct size

Compound: Nc1ncnc2c1ncn2[C@@H]1O[C@H](COP(O)(O)=S)[C@@H](O)[C@H]1O [Compound 2]
- effect on anti-contractile effects of perivascular adipose tissue [2]: restore the anti-contractile effects of perivascular adipose tissue in obese rats

Compound: Nc1nc2c(ncn2[C@@H]2O[C@H](COP(O)(O)=S)[C@@H](O)[C@H]2O)c(=O)[nH]1 [Compound 3]
- effect on anti-contractile effects of perivascular adipose tissue [2]: restore the anti-contractile effects of perivascular adipose tissue in obese rats

Compound: Nc1ncnc2c1ncn2[C@@H]1O[C@H](CS)[C@@H](O)[C@H]1O [Compound 34, 5′-Deoxy-5′-thioadenosine]
- DPPH inhibition ratio after 30 min incubation ([3]; 2 mM, after 30 min incubation): 90%
- DPPH inhibition ratio immediately ([3]; 2 mM, immediately): 70–80%
- IC50 ([3]; after 30 min incubation, read-out: DPPH IC50 30 min): 580 µM
- DPPH activity lower than that of ascorbic acid ([3]; from IC50 values, relative to ascorbic acid): 10 times
- IC50 ([3]; measured immediately, read-out: DPPH IC50 immediately): 720 µM
- ABTS antioxidant activity (Trolox equivalents), in words [4]: higher antioxidant activity than the parent dithioacetate derivatives
- Ejection Fraction [5, 8]: 82.14±5.877%
- Heart rate [5, 8]: 97.25±24.66 bpm
- PR interval [5, 8]: 49.43 ± 6.973 ms
- QT interval [5, 8]: 158.3 ± 35.8 ms
- Stroke Volume [5, 8]: 335.6 ± 68.82 µL
- duration of negative chronotropic action compared with adenosine ([5]; anaesthetized rats): their duration of action was longer
- heart block (in words) ([5]; anaesthetized rats): None of the new compounds (22, 24, and 34) induced complete heart block or pauses

Compound: CCC(CC)COC(=O)[C@H](C)N[P@](=O)(OC[C@H]1O[C@@](C#N)(c2ccc3c(N)ncnn23)[C@H](O)[C@@H]1O)Oc1ccccc1 [Remdesivir, reference compound]
- EC50 [6]: 0.5 ± 0.26 µM
- CC50 at 2 days [7]: > 10 µM
- SARS-CoV-2 titer reduction (SARS-CoV-2): 7.1 log10 PFU/mL
